In the test the test system is HBV. The test can be described thus: In-vitro anti-HBV activity in stable HBV-producing cell line (HepG2.2.15), HBV DNA by qPCR. Conditions: Hepatitis B virus, 168 h; HepG2.2.15 cells, HBV DNA in culture fluid, day 7, top concentration 16.4 μM. It counts as cell-based. The procedure: HBV DNA contents in cell culture fluid were detected by the qPCR-based assay and 50% effective concentration (EC50) values of the compounds against HBV were calculated. Specific procedures are as follows:
HepG2.2.15 cells were seeded into each well of 96-well plates, 40,000 cells per well. Cells were treated with cell culture medium containing compounds with different concentrations for 24 hours after cell seeding. The final concentration of each compound was 16.4 μM in each well and each compound was diluted to desired concentration using 3-fold gradient dilution protocol, 9 diluted points in duplicate. The culture mediums containing the compounds were refreshed on day 4 post cell seeding. Culture media were collected from the HepG2.2.15 plates on day 7 post cell seeding followed by HBV DNA extraction.
HBV DNA extraction: The HBV DNA extraction was performed using QIAamp 96 DNA Blood Kit (QIAGEN 51161).
PCR for quantification: PCR mix was prepared according to PCR system. PCR mix was dispensed to 96-well optical reaction plates (special for quantification). The standard diluted proportionally was added. Then the sample was added; The plates were sealed with optical adhesive film; PCR system was performed according to programs.
Percentage of HBV inhibition of DNA replication by compound was calculated using the following equation: % Inh.=[1-HBV DNA quantity of sample/HBV DNA quantity of DMSO control]×100.
Calculating EC50 value of compounds to HBV replication: the EC50 values were calculated based on “four-parameter logistic equation” and using GraphPad Prism 5 analysis software.
Usually EC50 stands for the concentration that produces a half-maximal response. A lower EC50 goes with higher potency in that assay. With `CCOC(=O)C1=C(CN2CCOC(CCC(=O)O)C2)NC(c2nccs2)=NC1c1ccc(F)cc1Br` (racemic) [contrast 1, 3-(4-((6-(2-bromo-4-fluorophenyl)-5-(ethoxycarbonyl)-2-(thiazol-2-yl)-3,6-dihydropyrimidin-4-yl)methyl)morpholin-2-yl)propanoic acid, reference compound], the EC50 amounted to 260 nM. On to `CCOC(=O)C1=C(CN2CCOC(CCC(=O)O)C2)NC(c2nccs2)=NC1c1ccc(F)cc1Cl` (racemic) [contrast 2, 3-(4-((6-(2-chloro-4-fluorophenyl)-5-(ethoxycarbonyl)-2-(thiazol-2-yl)-3,6-dihydropyrimidin-4-yl)methyl)morpholin-2-yl)propanoic acid, reference compound], for which the EC50 is 360 nM. `COC(=O)C1=C(CN2CCOC(CCC(=O)O)C2)NC(c2nccs2)=NC1c1ccc(F)cc1Cl` (racemic) [contrast 3, 3-(4-((6-(2-chloro-4-fluorophenyl)-5-(methoxycarbonyl)-2-(thiazol-2-yl)-3,6-dihydropyrimidin-4-yl)methyl)morpholin-2-yl)propanoic acid, reference compound] showed an EC50 of 290 nM. In the case of `COC(=O)C1=C(CN2CCOC(CCC(=O)O)C2)NC(c2nccs2)=NC1c1ccc(F)cc1Br` (racemic) [contrast 4, 3-(4-((6-(2-bromo-4-fluorophenyl)-5-(methoxycarbonyl)-2-(thiazol-2-yl)-3,6-dihydropyrimidin-4-yl)methyl)morpholin-2-yl)propanoic acid, reference compound] it was 250 nM. In the case of `CCOC(=O)C1=C(CN2CCOC(CCC(=O)O)C2)NC(c2nccs2)=NC1c1ccc(Cl)cc1Cl` (racemic) [contrast 5, 3-(4-((6-(2,4-dichlorophenyl)-5-(ethoxycarbonyl)-2-(thiazol-2-yl)-3,6-dihydropyrimidin-4-yl)methyl)morpholin-2-yl)propanoic acid, reference compound] it was 230 nM.

Take `COC(=O)C1=C(CN2CCOC(CCC(=O)O)C2)NC(c2nccs2)=NC1c1ccc(Cl)cc1Cl` (racemic) [contrast 6, 3-(4-((6-(2,4-dichlorophenyl)-5-(methoxycarbonyl)-2-(thiazol-2-yl)-3,6-dihydropyrimidin-4-yl)methyl)morpholin-2-yl)propanoic acid, reference compound]: a half-maximal response (EC50) required 210 nM. The result for `CCOC(=O)C1=C(CN2CCOCC2CCC(=O)O)NC(c2nccs2)=NC1c1ccc(F)cc1Cl` (racemic) [contrast 7, 3-(4-((6-(2-chloro-4-fluorophenyl)-5-(ethoxycarbonyl)-2-(thiazol-2-yl)-3,6-dihydropyrimidin-4-yl)methyl)morpholin-3-yl)propanoic acid, reference compound] reads 92 nM; that for `COC(=O)C1=C(CN2CCOCC2CCC(=O)O)NC(c2nccs2)=NC1c1ccc(F)cc1Cl` (racemic) [contrast 8, 3-(4-((6-(2-chloro-4-fluorophenyl)-5-(methoxycarbonyl)-2-(thiazol-2-yl)-3,6-dihydropyrimidin-4-yl)methyl)morpholin-3-yl)propanoic acid, reference compound], 90 nM. `CCOC(=O)C1=C(CN2CCOCC2CCC(=O)O)NC(c2nccs2)=NC1c1ccc(Cl)cc1Cl` (racemic) [contrast 9, 3-(4-((6-(2,4-dichlorophenyl)-5-(ethoxycarbonyl)-2-(thiazol-2-yl)-3,6-dihydropyrimidin-4-yl)methyl)morpholin-3-yl)propanoic acid, reference compound] yielded a 50% effective concentration (EC50) of 63 nM. As for `COC(=O)C1=C(CN2CCOCC2CCC(=O)O)NC(c2nccs2)=NC1c1ccc(Cl)cc1Cl` (racemic) [contrast 10, 3-(4-((6-(2,4-dichlorophenyl)-5-(methoxycarbonyl)-2-(thiazol-2-yl)-3,6-dihydropyrimidin-4-yl)methyl)morpholin-3-yl)propanoic acid, reference compound], the EC50 turned out to be 59 nM. In the case of `CCOC(=O)C1=C(CN2CCOCC2CCC(=O)O)NC(c2nccs2)=NC1c1ccc(F)cc1Br` (racemic) [contrast 11, 3-(4-((6-(2-bromo-4-fluorophenyl)-5-(ethoxycarbonyl)-2-(thiazol-2-yl)-3,6-dihydropyrimidin-4-yl)methyl)morpholin-3-yl)propanoic acid, reference compound] it was 80 nM; in that of `COC(=O)C1=C(CN2CCOCC2CCC(=O)O)NC(c2nccs2)=NC1c1ccc(F)cc1Br` (racemic) [contrast 12, 3-(4-((6-(2-bromo-4-fluorophenyl)-5-(methoxycarbonyl)-2-(thiazol-2-yl)-3,6-dihydropyrimidin-4-yl)methyl)morpholin-3-yl)propanoic acid, reference compound], 75 nM. In the case of `CCOC(=O)C1=C(CN2CCO[C@H](CC(C)C(=O)O)C2)NC(c2nccs2)=N[C@H]1c1ccc(F)cc1Br` (stereo partly drawn) [Example 3, 3-((R)-4-(((R)-6-(2-Bromo-4-fluorophenyl)-5-(ethoxycarbonyl)-2-(thiazol-2-yl)-3,6-dihydropyrimidin-4-yl)methyl)morpholin-2-yl)-2-methylpropanoic acid] it was 135 nM; in that of `CCOC(=O)C1=C(CN2CCO[C@H](C(C)CC(=O)O)C2)NC(c2nccs2)=N[C@H]1c1ccc(F)cc1Br` (stereo partly drawn) [Example 4, 3-((R)-4-(((R)-6-(2-Bromo-4-fluorophenyl)-5-(ethoxycarbonyl)-2-(thiazol-2-yl)-3,6-dihydropyrimidin-4-yl)methyl)morpholin-2-yl)butanoic acid], 116 nM.

Take `CCOC(=O)C1=C(CN2CCO[C@H](C)[C@H]2CCC(=O)O)NC(c2nccs2)=N[C@H]1c1ccc(F)cc1Br` [Example 5, 3-((2R,3R)-4-(((R)-6-(2-Bromo-4-fluorophenyl)-5-(ethoxycarbonyl)-2-(thiazol-2-yl)-3,6-dihydropyrimidin-4-yl)methyl)-2-methylmorpholin-3-yl)propanoic acid]: the EC50 worked out at 306 nM. In the case of `CCOC(=O)C1=C(CN2CCO[C@H](CCCCC(=O)O)C2)NC(c2nccs2)=N[C@H]1c1ccc(F)cc1Br` [Example 7, 5-((R)-4-(((R)-6-(2-Bromo-4-fluorophenyl)-5-(ethoxycarbonyl)-2-(thiazol-2-yl)-3,6-dihydropyrimidin-4-yl)methyl)morpholin-2-yl)pentanoic acid] it was 72 nM; in that of `CCOC(=O)C1=C(CN2CCOC[C@H]2CCC(=O)O)NC(c2nccs2)=N[C@H]1c1ccc(F)cc1Br` [Example 8, 3-((R)-4-(((R)-6-(2-Bromo-4-fluorophenyl)-5-(ethoxycarbonyl)-2-(thiazol-2-yl)-3,6-dihydropyrimidin-4-yl)methy)morpholin-3-yl)propanoic acid], 25 nM. In the case of `COC(=O)C1=C(CN2CCOC[C@H]2CCC(=O)O)NC(c2nccs2)=N[C@H]1c1ccc(F)cc1Br` [Example 14, 3-((R)-4-(((R)-6-(2-Bromo-4-fluorophenyl)-5-(methoxycarbonyl)-2-(thiazol-2-yl)-3,6-dihydropyrimidin-4-yl)methyl)morpholin-3-yl)propanoic acid] it was 140 nM; in that of `CCOC(=O)C1=C(CN2CCOC[C@@H]2CCC(=O)O)NC(c2nccs2)=N[C@H]1c1ccc(F)cc1Br` [Example 15, 3-((S)-4-(((R)-6-(2-Bromo-4-fluorophenyl)-5-(ethoxycarbonyl)-2-(thiazol-2-yl)-3,6-dihydropyrimidin-4-yl)methyl)morpholin-3-yl)propanoic acid], 7.94 nM.

For the origin of these results see US9771358B2, “Dihydropyrimidine compounds and their application in pharmaceuticals” (SUNSHINE LAKE PHARMA CO., LTD., priority 2014, dated 2017).
